Results: US7078400B2, “20-HETE synthase inhibitor” (Taisho Pharmaceutical Co., Ltd., priority 1999, dated 2006)

Legend:
[1] = system: 20-HETE synthase originated from rat kidney microsome; assay: Inhibitory effect of 20-HETE synthase originated from rat kidney microsome; format: biochemical; conditions: for Inhibition rate (1 μM): 20-HETE production without compound set to 100%
Protocol: Experimental Example [Inhibitory effect of 20-HETE synthase originated from rat kidney microsome]
Regarding the compounds listed in Table 1, their inhibitory activity to production of 20-HETE was examined.
The subject compound for this examination was added to a buffer comprising 50 mM of 3-morpholinopropane sulfonic acid (pH7.4), 5 mM of magnesium chloride and 1 mM of ethylenediaminetetraacetic acid (EDTA) disodium salt.
After that, the rat kidney microsome (microsome fraction prepared from the kidney of a spontaneous hypertension rat (male, 6 weeks of age)) as an enzyme, [5,6,8,9,11,12,14,15] tritium-arachidonic acid (supplied by Amasham) as a substrate, and NADPH (supplied by Sigma) as a coenzyme were added and reacted for 1.5 hours at 37° C.
After the reaction, formic acid was added to stop the reaction, and then acetonitrile (final concentration of 50%) was added and left for 1.5 hours at room temperature.
The activity of 20-HETE synthase was measured by using a high performance liquid chromatograph having a detector for radioactive substances (supplied by Gilson), and equipped with a C18 reversed phase column (Biocyl C18, supplied by Bio-rad).

[2] = 1 μM of subject compound, rat kidney microsome
[3] = concentration at which 20-HETE production was inhibited to 50%, rat kidney microsome
[4] = 1 μM of the subject compound added, rat kidney microsome
[5] = concentration at which production of 20-HETE was inhibited to 50%, rat kidney microsome
[6] = concentration at which production of 20-HETE was inhibited to 50%

SMILES | melting point | Inhibition rate (1 μM) [1, 2] | IC50 [1, 3] | Inhibition rate (1 μM) [1, 4] | IC50 [1, 5] | Inhibition rate (1 μM) ([1]; 1 μM of the subject compound) | IC50 [1, 6]
CCOCCCOc1ccc(N/C=N/O)cc1 [Comp. 371] | 93 to 94 °C | 110.4 | 0.9 nM |  |  |  | 
COc1cccc(C(F)(F)F)c1N/C=N/O [Comp. 125] | 138 to 139.5 °C (dec.) |  |  | 67.6 |  |  | 
Cc1cc(N/C=N/O)ccc1C(C)C [Comp. 178] | 121 to 122.5 °C |  |  | 91.4 | 9 nM |  | 
O/N=C/Nc1ccc(F)cc1 [Comp. 12] | 139.5 to 140.5 °C |  |  | 77.1 | 1420 nM |  | 
C#CCCOc1ccc(N/C=N/O)cc1 [Comp. 335] | 139 to 141 °C | 110 | 1.4 nM |  |  |  | 
C/C=C/C=C/COc1ccc(N/C=N/O)cc1 [Comp. 332] | 169.5 to 170 °C | 110.6 | 2.1 nM |  |  |  | 
COc1ccc(Cl)cc1N/C=N/O [Comp. 26] | 155 to 156.5 °C |  |  | 86.0 | 204 nM |  | 
O/N=C/Nc1c(Cl)cc(Cl)cc1Cl [Comp. 121] | 166.5 to 167 °C |  |  | 72.0 |  |  | 
O/N=C/Nc1ccc(OCC2COc3ccccc3O2)cc1 (centres unmarked) [Comp. 410] | 153 to 155 °C |  |  |  |  | 117.3 | 1 nM
O/N=C/Nc1ccc(OCCn2cccc2)cc1 [Comp. 411] | 150.5 to 151.5 °C |  |  |  |  | 122.4 | 3.1 nM
CN(C)CCOc1ccc(N/C=N/O)cc1 [Comp. 399] | 118 to 120 °C |  |  |  |  | 102.3 | 98 nM
CCCC(=O)c1ccc(N/C=N/O)c(C)c1 [Comp. 232] | 154 to 155 °C | 86.0 | 6.6 nM |  |  |  | 
N#Cc1ccc(-c2ccc(N/C=N/O)cc2)cc1 [Comp. 229] | 194 to 195 °C | 99.3 | 16 nM |  |  |  | 
O/N=C/Nc1ccc2c(c1)CCC2 [Comp. 238] | 142.5 to 144 °C | 101.6 | 30 nM |  |  |  | 
O/N=C/Nc1ccc(OCCCCCN2CCCC2)cc1 [Comp. 432] | 116.5 to 117.5 °C |  |  |  |  |  | 19.5 nM
O/N=C/Nc1ccc(Cl)cc1Cl [Comp. 40] | 160 to 161 °C |  |  | 98.2 |  |  | 
CC(C)(C)COc1ccc(N/C=N/O)cc1 [Comp. 324] | 148.5 to 149.5 °C | 99 | 3.7 nM |  |  |  | 
O/N=C/Nc1ccc(OCc2ccc(F)cc2)cc1 [Comp. 392] | 165.5 to 166 °C | 109.6 | 2.4 nM |  |  |  | 
Cc1ccc(N/C=N/O)cc1I [Comp. 55] | 130.5 to 132 °C |  |  | 31.3 |  |  | 
CCC(C)c1ccccc1N/C=N/O (centres unmarked) [Comp. 42] | 144 to 145 °C |  |  | 99.9 |  |  | 
CN1CCCC1CCOc1ccc(N/C=N/O)cc1 (centres unmarked) [Comp. 416] | 99.5 to 102.5 °C |  |  |  |  | 85.8 | 16.3 nM
O/N=C/Nc1cccc(Br)c1 [Comp. 82] | 133.5 to 134.5 °C |  |  | 70.9 |  |  | 
O/N=C/Nc1ccc(Br)cc1 [Comp. 36] | 163 to 164 °C |  |  | 98.3 | 136 nM |  | 
Cc1ccc(N/C=N/O)cc1F [Comp. 161] | 156 to 157 °C |  |  | 88.6 | 13.4 nM |  | 
O/N=C/Nc1ccc(OCc2ccncc2)cc1 [Comp. 344] | 180 to 180.5 °C | 107 | 37.5 nM |  |  |  | 

SMILES | melting point | Inhibition rate (1 μM) [1, 2] | IC50 [1, 3] | Inhibition rate (1 μM) [1, 4] | IC50 [1, 5] | Inhibition rate (1 μM) ([1]; 1 μM of the subject compound) | IC50 [1, 6]
CSCCOc1ccc(N/C=N/O)cc1 [Comp. 413] | 112 to 113 °C |  |  |  |  | 120.2 | 2.3 nM
CCCCOCCOc1ccc(N/C=N/O)cc1 [Comp. 373] | 97 to 99 °C | 115.3 | 0.8 nM |  |  |  | 
CN(C)CCCCCCOc1ccc(N/C=N/O)cc1 [Comp. 402] | 95 to 96 °C |  |  |  |  | 118.8 | 18.7 nM
COc1ccc(COc2ccc(N/C=N/O)cc2)c(OC)c1 [Comp. 395] | 178 to 178.5 °C | 111.6 | 2.1 nM |  |  |  | 
COc1ccc(C(C)(C)C)cc1N/C=N/O [Comp. 6] | 119.5 to 120.5 °C |  |  | 99.9 |  |  | 
CCCCCCCCCOc1ccc(N/C=N/O)cc1 [Comp. 323] | 128 to 130 °C |  | 25.9 nM |  |  |  | 
O/N=C/Nc1cccc(Oc2ccccc2)c1 [Comp. 124] | 100 to 102 °C |  |  | 92.2 | 354 nM |  | 
CN(C)CCCOc1ccc(N/C=N/O)cc1 [Comp. 400] | 115 to 117 °C |  |  |  |  | 116.9 | 48.7 nM
CC(C)=CCOc1ccc(N/C=N/O)cc1 [Comp. 334] | 125 to 126 °C | 105 | 3.2 nM |  |  |  | 
O/N=C/Nc1ccc(OCCCN2CCCCC2)cc1 [Comp. 428] | 143.5 to 144.5 °C |  |  |  |  |  | 51.5 nM
N#Cc1cccc(COc2ccc(N/C=N/O)cc2)c1 [Comp. 393] | 143 to 146 °C | 124.3 | 1.1 nM |  |  |  | 
O/N=C/Nc1ccc(OCCN2CCCC2)cc1 [Comp. 339] | 113.5 to 114.5 °C | 88 | 124 nM |  |  |  | 
COc1ccc(N/C=N/O)c(C)c1 [Comp. 19] | 144 to 145 °C |  |  | 88.0 | 338 nM |  | 
Cc1cc(NC(=O)c2ccccc2)c(Cl)cc1N/C=N/O [Comp. 276] | 207 to 207.5 °C | 71.8 | 55.9 nM |  |  |  | 
COc1ccc(N/C=N/O)cc1 [Comp. 18] | 139 to 140 °C |  |  | 94.6 | 45.2 nM |  | 
O/N=C/Nc1ccc(Cl)cc1F [Comp. 25] | 142.5 to 144.5 °C |  |  | 87.0 |  |  | 
CC(C)(C)c1ccccc1N/C=N/O.Cl [Comp. 8] | 141 to 142 °C |  |  | 99.9 |  |  | 
Cc1ccc(Cl)c(N/C=N/O)c1 [Comp. 14] | 151 to 153 °C |  |  | 91.7 | 163 nM |  | 
CSCCCOc1ccc(N/C=N/O)cc1 [Comp. 414] | 132 to 133.5 °C |  |  |  |  | 113.2 | 1 nM
O/N=C/Nc1c(Br)cccc1Br [Comp. 33] | 171 °C |  |  | 91.9 |  |  | 
O/N=C/Nc1ccc(OCC2CCCO2)cc1 (centres unmarked) [Comp. 420] | 147 to 148.5 °C |  |  |  |  | 118.6 | 8 nM
Cc1cc(Br)ccc1N/C=N/O [Comp. 41] | 161 to 161.5 °C |  |  | 96.6 | 49 nM |  | 
O/N=C/Nc1ccc(Cl)c(Cl)c1 [Comp. 24] | 119 to 120.5 °C |  |  | 89.2 | 520 nM |  | 
CC(C)c1ccc(N/C=N/O)c(Br)c1 [Comp. 58] | 146.5 to 148 °C |  |  | 99.9 | 7.1 nM |  | 
